Consider 9 compounds from PubChem BioAssay AID1259407 (Chemical Carcinogenesis Research Information System (CCRIS), 2018).

In this data set the test system is CCRIS mutagenicity, Ames/micronucleus/aberration tests. In words: CCRIS mutagenicity studies.
[1] abbreviates: Test System: AMES SALMONELLA TYPHIMURIUM, Strain/Indicator: TA98, Metabolic Activation: HAMSTER, LIVER, S-9, Method: PREINCUBATION (PRIVAL METHOD).
[2] abbreviates: Test System: AMES SALMONELLA TYPHIMURIUM, Strain/Indicator: TA98, Metabolic Activation: NONE, Method: STANDARD PLATE.
The mark [3] stands for this setting: Test System: AMES SALMONELLA TYPHIMURIUM, Strain/Indicator: TA100, Metabolic Activation: NONE, Method: STANDARD PLATE.

SMILES strings stand for the structures. The source made the active and inactive calls. How the calls were made is not given here.

Turning to `Cc1ccc(N=Nc2c(O)ccc3ccccc23)c(C)c1`, the mutagenic call is, setting by setting: (Test System: AMES SALMONELLA TYPHIMURIUM, Strain/Indicator: TA98, Metabolic Activation: HAMSTER, LIVER, S-9, AROCLOR 1254 (5,20%), Method: PREINCUBATION) “active; positive”; (Test System: AMES SALMONELLA TYPHIMURIUM, Strain/Indicator: TA98, Metabolic Activation: HAMSTER, LIVER, S-9, AROCLOR 1254, Method: STANDARD PLATE) “active; positive”; under setting [1], “active; positive”; under setting [2], “inactive; negative”; (Test System: AMES SALMONELLA TYPHIMURIUM, Strain/Indicator: TA98, Metabolic Activation: RAT, BLADDER, S-9, PCB, Method: FLUCTUATION TEST) “inactive; negative”; (Test System: AMES SALMONELLA TYPHIMURIUM, Strain/Indicator: TA98, Metabolic Activation: RAT, LIVER, S-9, AROCLOR 1254, HAMSTER, LIVER, S-9, AROCLOR 1254, Method: STANDARD PLATE) “active; positive”. Moreover, the mutagenic call reads like this: (Test System: AMES SALMONELLA TYPHIMURIUM, Strain/Indicator: TA98, Metabolic Activation: RAT, LIVER, S-9, Method: STANDARD PLATE) “inactive; negative”; (Test System: AMES SALMONELLA TYPHIMURIUM, Strain/Indicator: TA100, Metabolic Activation: HAMSTER, LIVER, S-9, Method: PREINCUBATION (PRIVAL METHOD)) “active; positive”; under setting [3], “inactive; negative”; (Test System: AMES SALMONELLA TYPHIMURIUM, Strain/Indicator: TA100, Metabolic Activation: RAT, BLADDER, S-9, PCB, Method: FLUCTUATION TEST) “inactive; negative”; (Test System: AMES SALMONELLA TYPHIMURIUM, Strain/Indicator: TA100, Metabolic Activation: RAT, LIVER, S-9, Method: STANDARD PLATE) “inactive; negative”; (Test System: AMES SALMONELLA TYPHIMURIUM, Strain/Indicator: TA1538, Metabolic Activation: RAT, LIVER, S-9, AROCLOR 1254, HAMSTER, LIVER, S-9, AROCLOR 1254, Method: STANDARD PLATE) “active; positive”. The mutagenic call reads like this: (Test System: Mouse lymphoma, Strain/Indicator: L5178Y (tk+/tk-), Metabolic Activation: None, Method: Suspension/plate) “inactive; negative”; (Test System: Mouse lymphoma, Strain/Indicator: L5178Y (tk+/tk-), Metabolic Activation: Rat, Liver, S-9, Aroclor 1254, Method: Suspension/plate) “inactive; negative”.
In the case of `CCCCN(CCCC)[N+](=O)[O-]`, the mutagenic call (Test System: E. COLI, Strain/Indicator: WP2 (HCR-), Metabolic Activation: RAT, LIVER, MICROSOMES, PHENOBARBITAL) is “active; positive”.
For the compound `Cc1ccccc1N=Nc1ccc(N=Nc2c(O)ccc3ccccc23)c(C)c1`, the mutagenic call under setting [1] is “active; positive”, the mutagenic call under setting [2] is “inactive; negative” and the mutagenic call under setting [3] was “inactive; negative”.
For the compound `CN(N=O)C(=O)Nc1ccccc1`, the mutagenic call (End Point: IN VITRO CHROMOSOMAL ABERRATIONS, Test System: CHINESE HAMSTER V79-E CELLS, Metabolic Activation: NONE) is “active; positive (structural changes)”.
Turning to `Fc1ccc(F)c2ncccc12`, the mutagenic call (Test System: AMES SALMONELLA TYPHIMURIUM, Strain/Indicator: TA100, Metabolic Activation: RAT LIVER S-9, PHENOBARBITAL AND 5,6-BENZOFLAVONE, Method: PREINCUBATION) was “active; positive” and the mutagenic call (Test System: AMES SALMONELLA TYPHIMURIUM, Strain/Indicator: TA100, Metabolic Activation: RAT, LIVER, S-9, PHENOBARBITAL AND 5,6-BENZOFLAVONE, Method: PREINCUBATION) is “active; positive”.
Consider `CCCS(=O)(=O)n1ncc(Cl)c(Cl)c1=O`, for which the mutagenic call under setting [2] was “inactive; negative”; the mutagenic call (Test System: AMES SALMONELLA TYPHIMURIUM, Strain/Indicator: TA98, Metabolic Activation: RAT, LIVER, S-9, AROCLOR 1254, Method: STANDARD PLATE) is “inactive; negative”; the mutagenic call under setting [3] was “active; positive”; the mutagenic call (Test System: AMES SALMONELLA TYPHIMURIUM, Strain/Indicator: TA100, Metabolic Activation: RAT, LIVER, S-9, AROCLOR 1254, Method: STANDARD PLATE) was “active; positive”; the mutagenic call (Test System: AMES SALMONELLA TYPHIMURIUM, Strain/Indicator: TA1535, Metabolic Activation: NONE, Method: STANDARD PLATE) is “inactive; negative”; the mutagenic call (Test System: AMES SALMONELLA TYPHIMURIUM, Strain/Indicator: TA1535, Metabolic Activation: RAT, LIVER, S-9, AROCLOR 1254, Method: STANDARD PLATE) was “active; positive”. Moreover, the mutagenic call reads like this: (Test System: AMES SALMONELLA TYPHIMURIUM, Strain/Indicator: TA1537, Metabolic Activation: NONE, Method: STANDARD PLATE) “inactive; negative”; (Test System: AMES SALMONELLA TYPHIMURIUM, Strain/Indicator: TA1537, Metabolic Activation: RAT, LIVER, S-9, AROCLOR 1254, Method: STANDARD PLATE) “inactive; negative”.
With `CCCCOC(=O)c1ccccc1N`, the mutagenic call by setting is: (Test System: AMES SALMONELLA TYPHIMURIUM, Strain/Indicator: TA98, Metabolic Activation: HAMSTER, LIVER, S-9, AROCLOR 1254 (10%), Method: PREINCUBATION) “inactive; negative”; (Test System: AMES SALMONELLA TYPHIMURIUM, Strain/Indicator: TA98, Metabolic Activation: NONE, Method: PREINCUBATION) “inactive; negative”; (Test System: AMES SALMONELLA TYPHIMURIUM, Strain/Indicator: TA98, Metabolic Activation: RAT, LIVER, S-9, AROCLOR 1254 (10%), Method: PREINCUBATION) “inactive; negative”; (Test System: AMES SALMONELLA TYPHIMURIUM, Strain/Indicator: TA100, Metabolic Activation: HAMSTER, LIVER, S-9, AROCLOR 1254 (10%), Method: PREINCUBATION) “inactive; negative”; (Test System: AMES SALMONELLA TYPHIMURIUM, Strain/Indicator: TA100, Metabolic Activation: NONE, Method: PREINCUBATION) “inactive; negative”; (Test System: AMES SALMONELLA TYPHIMURIUM, Strain/Indicator: TA100, Metabolic Activation: RAT, LIVER, S-9, AROCLOR 1254 (10%), Method: PREINCUBATION) “inactive; negative”. The mutagenic call (Test System: AMES SALMONELLA TYPHIMURIUM, Strain/Indicator: TA1535, Metabolic Activation: HAMSTER, LIVER, S-9, AROCLOR 1254 (10%), Method: PREINCUBATION) was “inactive; negative”; the mutagenic call (Test System: AMES SALMONELLA TYPHIMURIUM, Strain/Indicator: TA1535, Metabolic Activation: NONE, Method: PREINCUBATION) is “inactive; negative”; the mutagenic call (Test System: AMES SALMONELLA TYPHIMURIUM, Strain/Indicator: TA1535, Metabolic Activation: RAT, LIVER, S-9, AROCLOR 1254 (10%), Method: PREINCUBATION) is “inactive; negative”; the mutagenic call (Test System: AMES SALMONELLA TYPHIMURIUM, Strain/Indicator: TA1537, Metabolic Activation: HAMSTER, LIVER, S-9, AROCLOR 1254 (10%), Method: PREINCUBATION) was “inactive; negative”; the mutagenic call (Test System: AMES SALMONELLA TYPHIMURIUM, Strain/Indicator: TA1537, Metabolic Activation: NONE, Method: PREINCUBATION) is “inactive; negative”; the mutagenic call (Test System: AMES SALMONELLA TYPHIMURIUM, Strain/Indicator: TA1537, Metabolic Activation: RAT, LIVER, S-9, AROCLOR 1254 (10%), Method: PREINCUBATION) is “inactive; negative”.
With `CCCCCC(C)=O`, the mutagenic call (Test System: CHINESE HAMSTER V-79, Strain/Indicator: V-79 (HPRT)/6-THIOGUANINE, Metabolic Activation: NONE, Method: STANDARD PLATE) was “inactive; negative” and the mutagenic call (Test System: CHINESE HAMSTER V-79, Strain/Indicator: V-79 (HPRT)/6-THIOGUANINE, Metabolic Activation: RAT LIVER S-9, Method: STANDARD PLATE) was “inactive; negative”.
On to `OC[C@@H](O)[C@@H](O)[C@H](O)[C@@H](O)CO`, for which the mutagenic call runs as follows: (End Point: IN VITRO CHROMOSOMAL ABERRATIONS, Test System: CHO-WBL CELLS, Metabolic Activation: NONE) “active; positive (structural changes); osmolality of solution decisive factor”; (Test System: AMES SALMONELLA TYPHIMURIUM, Strain/Indicator: TA97A, Metabolic Activation: NONE, Method: PREINCUBATION) “inactive; negative”; (Test System: AMES SALMONELLA TYPHIMURIUM, Strain/Indicator: TA97A, Metabolic Activation: RAT, LIVER, S-9, AROCLOR 1254, Method: PREINCUBATION) “inactive; negative”; (Test System: AMES SALMONELLA TYPHIMURIUM, Strain/Indicator: TA102, Metabolic Activation: NONE, Method: PREINCUBATION) “inactive; negative”; (Test System: AMES SALMONELLA TYPHIMURIUM, Strain/Indicator: TA102, Metabolic Activation: RAT, LIVER, S-9, AROCLOR 1254, Method: PREINCUBATION) “inactive; negative”.
